We go through two compounds from patent US20090306116A1, “PYRIMIDINE DERIVATIVES FOR THE INHIBITION OF IGF-IR TYROSINE KINASE ACTIVITY” (AstraZeneca AB, priority 2005, published 2009).

As a reminder, the IC50 is the concentration that inhibits the measured activity by half. A lower IC50 goes with inhibition by little substance.

This assay has as its system murine fibroblasts (NIH3T3) over-expressing human IGF-1 receptor. The assay is described as follows: Inhibition of IGF-stimulated cell proliferation (BrdU incorporation), Test (c). It counts as cell-based. Conditions: inhibition of IGF-stimulated proliferation in NIH3T3 over-expressing human IGF-1 receptor. The procedure: The construction of murine fibroblasts (NIH3T3) over-expressing human IGF-1 receptor has been described by Lammers et al (EMBO J, 8, 1369-1375, 1989). These cells show a proliferative response to IGF-I which can be measured by BrdU incorporation into newly synthesised DNA. Compound potency was determined as causing inhibition of the IGF-stimulated proliferation in the following assay:
Cell Proliferation ELISA, BrdU (calorimetric) [Boehringer Mannheim (Diagnostics and Biochemicals) Ltd, UK. Cat no. 1 647 229].
DMEM, FCS, Glutamine, HBSS (all from Life Technologies Ltd., UK).
Human recombinant IGF-1 Animal/media grade (GroPep Limited ABN 78 008 176 298, Australia. Cat No. IU 100).
100 μg of lyophilised IGF was reconstituted in 100 ul of 10 mM HCl. Add 400 μl of 1 mg/ml BSA in PBS 25 μl aliquots @ 200 μg/ml IGF-1
10 μl of stock IGF+12.5 ml growth medium to give 8× stock of 160 ng/ml.
DMEM, 10% FCS, 2 mM glutamine.
DMEM, 1% charcoal/dextran stripped FCS, 2 mM glutamine.
Compounds are initially dissolved in DMSO to 10 mM, followed by dilutions in DMEM+1% FCS+glutamine to give a range from […] in 1-0.00045% DMSO final concentration in assay well. […]
The incorporation of BrdU in the cells (after a 4 h incorporation period) was assessed using the BrdU Cell Proliferation Elisa according to the manufacturer's protocol. […]
For orientation: Dividing cells build labelled thymidine or BrdU into new DNA.

Take `Cc1cc(Nc2nccs2)nc(N2CCC[C@H]2c2cc(-c3ccccn3)no2)n1` [Example 1, S-6-Methyl-4-(2-thiazolylamino)-2-{2-[3-(pyrid-2-yl)isoxazol-5-yl]pyrrolidin-1-yl}pyrimidine]: the IC50 is 0.17 µM.
With `Cc1cc(Nc2ncc[nH]2)nc(N2CCC[C@H]2c2cc(-c3ccccn3)no2)n1` [Example 23, S-6-Methyl-4-(imidazol-2-ylamino)-2-{2-[3-(pyridin-2-yl)isoxazol-5-yl]pyrrolidin-1-yl}pyrimidine], the IC50 turned out to be 0.45 µM.
